Experimental data: PubChem BioAssay AID1918999 (Molecular Pharmacology Branch, DTP, NCI, 2023)

Test system: 556581-035-R-J1-PDC complex spheroid growth
Experiment: Anticancer human tumor 556581-035-R-J1-PDC patient-derived ovarian carcinoma cell line growth inhibition [AhR]
Settings: for IC50: curve of first compound; for viability, T/C: stronger effect = lower value
Procedure, shortened: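 Agents were dosed in half-log steps down from roughly clinical Cmax, or from 10 microM where Cmax was unknown, alone and with AhR antagonists. Read-out: percent test/control growth of tumor spheroids containing HUVEC and MSC stromal cells.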

[1] = second compound 0.1 µM, first compound 0.00949 µM
[2] = second compound 0.1 µM, first compound 0.03 µM
[3] = second compound 0.1 µM, first compound 0.0949 µM
[4] = second compound 0.1 µM, first compound 0.3 µM
[5] = second compound 0.1 µM, first compound 0.949 µM
[6] = second compound 0.1 µM, first compound 3 µM
[7] = second compound 0.316 µM, first compound 0.00949 µM
[8] = second compound 0.316 µM, first compound 0.03 µM
[9] = second compound 0.316 µM, first compound 0.0949 µM
[10] = second compound 0.316 µM, first compound 0.3 µM
[11] = second compound 0.316 µM, first compound 0.949 µM
[12] = second compound 0.316 µM, first compound 3 µM
[13] = second compound 1 µM, first compound 0.00949 µM
[14] = second compound 1 µM, first compound 0.03 µM
[15] = second compound 1 µM, first compound 0.0949 µM
[16] = second compound 1 µM, first compound 0.3 µM
[17] = second compound 1 µM, first compound 0.949 µM
[18] = second compound 1 µM, first compound 3 µM
[19] = second compound 3.16 µM, first compound 0.00949 µM
[20] = second compound 3.16 µM, first compound 0.03 µM
[21] = second compound 3.16 µM, first compound 0.0949 µM
[22] = second compound 3.16 µM, first compound 0.3 µM
[23] = second compound 3.16 µM, first compound 0.949 µM
[24] = second compound 3.16 µM, first compound 3 µM
[25] = second compound 10 µM, first compound 0.00949 µM
[26] = second compound 10 µM, first compound 0.03 µM
[27] = second compound 10 µM, first compound 0.0949 µM
[28] = second compound 10 µM, first compound 0.3 µM
[29] = second compound 10 µM, first compound 0.949 µM
[30] = second compound 10 µM, first compound 3 µM
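Throughout, for viability, T/C: compound exposure lasted 7 days; 100% = DMSO vehicle control growth.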

CC1COCCN1c1cc(C2(S(C)(=N)=O)CC2)nc(-c2ccnc3[nH]ccc23)n1 (stereo not given) + Cc1ccccc1N=Nc1ccc(NC(=O)c2ccnn2C)c(C)c1
IC50 (second compound 0.1 µM): > 10 µM
IC50 (second compound 0.316 µM): > 10 µM
IC50 (second compound 1 µM): > 10 µM
IC50 (second compound 3.16 µM): > 10 µM
IC50 (second compound 10 µM): > 10 µM
viability, T/C (second compound 0.1 µM, first compound 0.0316 µM): 100%
viability, T/C (second compound 0.1 µM, first compound 0.1 µM): 99.5%
viability, T/C (second compound 0.1 µM, first compound 0.316 µM): 96.6%
viability, T/C (second compound 0.1 µM, first compound 1 µM): 92.1%
viability, T/C (second compound 0.1 µM, first compound 3.16 µM): 78.4%
viability, T/C (second compound 0.1 µM, first compound 10 µM): 59%
viability, T/C (second compound 0.316 µM, first compound 0.0316 µM): 98.8%
viability, T/C (second compound 0.316 µM, first compound 0.1 µM): 99.2%
viability, T/C (second compound 0.316 µM, first compound 0.316 µM): 96.7%
viability, T/C (second compound 0.316 µM, first compound 1 µM): 92%
viability, T/C (second compound 0.316 µM, first compound 3.16 µM): 80.1%
viability, T/C (second compound 0.316 µM, first compound 10 µM): 58.3%
viability, T/C (second compound 1 µM, first compound 0.0316 µM): 100%
viability, T/C (second compound 1 µM, first compound 0.1 µM): 100%
viability, T/C (second compound 1 µM, first compound 0.316 µM): 98.6%
viability, T/C (second compound 1 µM, first compound 1 µM): 93.9%
viability, T/C (second compound 1 µM, first compound 3.16 µM): 78.4%
viability, T/C (second compound 1 µM, first compound 10 µM): 60%
viability, T/C (second compound 3.16 µM, first compound 0.0316 µM): 95.1%
viability, T/C (second compound 3.16 µM, first compound 0.1 µM): 98.1%
viability, T/C (second compound 3.16 µM, first compound 0.316 µM): 95.4%
viability, T/C (second compound 3.16 µM, first compound 1 µM): 88%
viability, T/C (second compound 3.16 µM, first compound 3.16 µM): 73.9%
viability, T/C (second compound 3.16 µM, first compound 10 µM): 58.8%
viability, T/C (second compound 10 µM, first compound 0.0316 µM): 96.1%
viability, T/C (second compound 10 µM, first compound 0.1 µM): 97.2%
viability, T/C (second compound 10 µM, first compound 0.316 µM): 93%
viability, T/C (second compound 10 µM, first compound 1 µM): 85.2%
viability, T/C (second compound 10 µM, first compound 3.16 µM): 74.5%
viability, T/C (second compound 10 µM, first compound 10 µM): 60.8%

CCN(c1cc(-c2ccc(CN3CCOCC3)cc2)cc(C(=O)NCc2c(C)cc(C)[nH]c2=O)c1C)C1CCOCC1 + Cc1ccccc1N=Nc1ccc(NC(=O)c2ccnn2C)c(C)c1
IC50 (second compound 0.1 µM): > 3 µM
IC50 (second compound 0.316 µM): > 3 µM
IC50 (second compound 1 µM): > 3 µM
IC50 (second compound 3.16 µM): > 3 µM
IC50 (second compound 10 µM): > 3 µM
viability, T/C [1]: 92%
viability, T/C [2]: 97%
viability, T/C [3]: 85.8%
viability, T/C [4]: 91.5%
viability, T/C [5]: 90.9%
viability, T/C [6]: 86.8%
viability, T/C [7]: 95.2%
viability, T/C [8]: 98.2%
viability, T/C [9]: 88.9%
viability, T/C [10]: 85.4%
viability, T/C [11]: 86.2%
viability, T/C [12]: 81.1%
viability, T/C [13]: 81.4%
viability, T/C [14]: 85.6%
viability, T/C [15]: 88.4%
viability, T/C [16]: 82.6%
viability, T/C [17]: 82.4%
viability, T/C [18]: 89.1%
viability, T/C [19]: 84.5%
viability, T/C [20]: 88.1%
viability, T/C [21]: 87.6%
viability, T/C [22]: 73.9%
viability, T/C [23]: 91.8%
viability, T/C [24]: 78%
viability, T/C [25]: 74.9%
viability, T/C [26]: 90.3%
viability, T/C [27]: 83.8%
viability, T/C [28]: 79%
viability, T/C [29]: 77%
viability, T/C [30]: 73.4%

Nc1ncn(C2CC(O)C(CO)S2)c(=O)n1 (stereo not given) + Cc1ccccc1N=Nc1ccc(NC(=O)c2ccnn2C)c(C)c1
IC50 (second compound 0.1 µM): > 0.3 µM
IC50 (second compound 0.316 µM): > 0.3 µM
IC50 (second compound 1 µM): > 0.3 µM
IC50 (second compound 3.16 µM): > 0.3 µM
IC50 (second compound 10 µM): > 0.3 µM
viability, T/C (second compound 0.1 µM, first compound 0.000949 µM): 105%
viability, T/C (second compound 0.1 µM, first compound 0.003 µM): 106%
viability, T/C [1]: 115%
viability, T/C [2]: 97%
viability, T/C [3]: 77.8%
viability, T/C [4]: 69.5%
viability, T/C (second compound 0.316 µM, first compound 0.000949 µM): 93.6%
viability, T/C (second compound 0.316 µM, first compound 0.003 µM): 111%
viability, T/C [7]: 100%
viability, T/C [8]: 95.9%
viability, T/C [9]: 78.8%
viability, T/C [10]: 63.4%
viability, T/C (second compound 1 µM, first compound 0.000949 µM): 99.5%
viability, T/C (second compound 1 µM, first compound 0.003 µM): 106%
viability, T/C [13]: 99.9%
viability, T/C [14]: 91.5%
viability, T/C [15]: 102%
viability, T/C [16]: 64.5%
viability, T/C (second compound 3.16 µM, first compound 0.000949 µM): 87.1%
viability, T/C (second compound 3.16 µM, first compound 0.003 µM): 101%
viability, T/C [19]: 88.1%
viability, T/C [20]: 90.6%
viability, T/C [21]: 76.8%
viability, T/C [22]: 65.7%
viability, T/C (second compound 10 µM, first compound 0.000949 µM): 90%
viability, T/C (second compound 10 µM, first compound 0.003 µM): 95.2%
viability, T/C [25]: 84.1%
viability, T/C [26]: 80.1%
viability, T/C [27]: 83.1%
viability, T/C [28]: 68%

O=C(C=Cn1cnc(-c2cc(C(F)(F)F)cc(C(F)(F)F)c2)n1)NNc1cnccn1 + Cc1ccccc1N=Nc1ccc(NC(=O)c2ccnn2C)c(C)c1
IC50 (second compound 0.1 µM): > 3 µM
IC50 (second compound 0.316 µM): 1.75 µM
IC50 (second compound 1 µM): > 3 µM
IC50 (second compound 3.16 µM): > 3 µM
IC50 (second compound 10 µM): > 3 µM
viability, T/C [1]: 100%
viability, T/C [2]: 99.8%
viability, T/C [3]: 80.3%
viability, T/C [4]: 78.5%
viability, T/C [5]: 72.5%
viability, T/C [6]: 54.4%
viability, T/C [7]: 106%
viability, T/C [8]: 92.7%
viability, T/C [9]: 91%
viability, T/C [10]: 73.3%
viability, T/C [11]: 60.7%
viability, T/C [12]: 40.8%
viability, T/C [13]: 93%
viability, T/C [14]: 93.4%
viability, T/C [15]: 85.5%
viability, T/C [16]: 84.4%
viability, T/C [17]: 72.5%
viability, T/C [18]: 49.7%
viability, T/C [19]: 80.3%
viability, T/C [20]: 87.7%
viability, T/C [21]: 79.8%
viability, T/C [22]: 68.4%
viability, T/C [23]: 72.2%
viability, T/C [24]: 60.4%
viability, T/C [25]: 81.1%
viability, T/C [26]: 81.6%
viability, T/C [27]: 82.7%
viability, T/C [28]: 82.4%
viability, T/C [29]: 71.9%
viability, T/C [30]: 56.9%
